Test results taken from patent US4824941A, “Specific antibody to the native form of 2'5'-oligonucleotides, the method of preparation and the use as reagents in immunoassays or for binding 2'5'-oligonucleotides in biological systems” (priority 1988, dated 1989).

Assays:
[1] = biological target: specific antibody to 2'5'-oligo(A); experiment: Competitive binding radio-immune assay (inhibition of binding of [32P]-labelled 2'5'A tetramer pCp probe to antibody, nitrocellulose filter); conditions: 25 μl, 0°, 1 hr; [32P] 2'5'A tetramer pCp probe
Experimental: The titers of the antisera are determined from the reciprocal of the dilution which gives 50% retention of the radioactivity to a nitrocellulose filter. The antiserum dilution is incubated in 25 μl of 20 mM KOAc, 10 mM HEPES-KOH, pH 7.4, 1.5 mM Mg(OAc)2 containing 1 mg/ml bovine serum albumin (BSA) and 5-6000 cpm of [^32 P] terminally labelled 2'5'A tetramer pCp (Amersham International: specific activity, approximately 3000 Ci/mmole). After incubation at 0° for 1 hr, the mixtures are diluted with 3 ml of ice cold 90 mM KCl, 20 mM Tris-HCl, pH 7.6 and passed through 25 mm discs of nitrocellulose (Millipore, type HAWP, 0.45 μ) with a filtration apparatus. The filters are washed with a further 2 portions of the same buffer, and retained radioactivity counted by Cerenkov radiation in a scintillation counter.
In the simple radio-immune assay described in Example 2, the unknown is determined by dilution of the radioactivity bound from the constant amount of known radioactive probe. […] This inhibition is a measure of the affinity of the related compound for the antibody, and will also indicate to what extent such compounds might interfere with the assay, if present in the material being analysed. […] A collection of 2'5'-adenylates and related compounds were prepared as follows. The dimer, trimer, tetramer and pentamer were obtained from the DEAE-cellulose fractionation of example 1. The tetramer was partially digested with bacterial alkaline phosphatase and the products separated by high performance liquid chromatography on a Partisil SAX column (Whatman), with 10 mM potassium phosphate buffer, pH 6.8, 20% ethanol and a gradient from 10 to 500 mM KCl. Acetyl and succinyl derivatives of the tetramer were obtained by reaction with acetic and succinic anhydride, according to the method of Example 1. Other compounds were from commercial sources.

2'5'-oligo(A) synthetase [2] = conditions: source of value not given; read-out: Km of the enzyme; cited from earlier work
2'5'-oligo(A) synthetase [3] = experiment: 2'5'-oligo(A) synthetase in 3T3 cells, conventional assay ([3H]-ATP to [3H]-2'5'-oligo(A)); type: cell-based, Swiss mouse; conditions: 3T3 cells treated overnight; 10 μM prostaglandin F2α or 100 u/ml interferon; none 556, background (197)
Description: (§1) Because of the extremely efficient reaction condition of cell-free systems, it is possible to assay low levels of 2'5'-oligo(A) synthetase. However, it is sometimes desirable to measure low levels from extremely small amounts of precious starting material. By coupling the extremely sensitive measurement of 2'5'-oligo(A) according to the methods of the present invention, with the enzymatic assay for 2'5'-oligo(A) polymerase, the enzyme can be determined with 10^5 -fold higher sensitivity than was previously possible. In the example, Swiss mouse 3T3 fibroblast cells are stimulated into a cell cycle by a variety of hormones and factors (for literature on this subject see the article "Criteria for the establishment of the biological significance of ribosomal protein phosphorylation" in Current Topics in Cellular Regulation, volume 21, 1982, pages 89-99, by J. Gordon, P. J. Nielsen, K. L. Manchester, H. Towbin, L. Jimenez de Asua and G. Thomas). […] One portion (198 μl) is analysed for conversion of the ATP to 2'5'-oligo(A) from the retention of radioactivity on an analytical DEAE cellulose column (see example 4). The other portion (2 μl) is diluted in the range 250 to 10,000-fold and the 2'5'-oligo(A) determined by the radioimmune assay (see example 3).

2'5'-oligo(A) synthetase [4] = experiment: 2'5'-oligo(A) synthetase in 3T3 cells, radio-immune assay of reaction product; type: cell-based, Swiss mouse; conditions: 3T3 cells treated overnight; 10 μM prostaglandin F2α or 100 u/ml interferon; none 50, background 0
Description: as §1

[5] = test system: Friend mouse erythroleukemia cells (N46AP); experiment: 2'5'-oligo(A) levels in differentiating Friend erythroleukemia cells, clone N46AP; type: cell-based; conditions: 1.4% (v/v) DMSO
Experimental: (§2) This is an example for cells growing in culture, but is universally applicable to any biological material: cell cultures, organs, tissues, bodily fluids such as blood, urine, cerebrospinal fluids, milk or any other suitably available material. Cells in a petri dish are rapidly washed with buffered saline (this step is dispensed with in the case of bodily fluids), then enough ice cold 5% trichloracetic acid (TCA) to cover the layer of cells (3 ml for a 7 cm diameter petri dish) and the dish is kept on ice for 5 min. The TCA and detached cells are removed and centrifuged to remove the insoluble material, and the dish and pellet are re-extracted with a similar volume of 5% TCA and the supernatants pooled. Alternatively, in the case of a cell suspension culture, the cells are pelleted by centrifugation at room temperature, the cells resuspended in a volume of buffered saline equal to the volume of the pellet, and approximately 10 volumes of 5% TCA are added. The insoluble material is removed by centrifugation and the pellet extracted with 1/2 the previous volume of 5% TCA. The supernatants are pooled. All operations with TCA are performed between 0° C. and 5° C. The pooled supernatants are freed of TCA by extraction with an equal volume of 30% (v/v) tri-N-octylamine in Freon 113 (Dow Chemicals). The upper aqueous phase is collected and the Freon phase re-extracted with 1/2 the preceeding volume of distilled water. Since biological material may contain ATP in the mM range, and it is desirable to measure 2'5'-oligo(A) in the nM range, it may be desirable to remove such 10^6 -fold excess of ATP, which might interfere with the assay. The ATP and other nucleotides which might interfere with the assay may then be removed chromatographically with DEAE cellulose (Whatman DE-52) equilibrated with 125 mM NH4 HCO3 (pH 7.8). The loading ratio is the same as for the preparative columns of example 1, but microcolumns of 200 μl are optimal for this analytical scale. The column is washed with 15 ml of the same buffer to remove the ATP and other unbound material. The 2'5'-oligo(A) is eluted with 2 ml of 0.5M NH4 HCO3, and the samples are lyophilized after addition of 1/10th volume of ethanol. The samples may be stored indefinitely in anhydrous form and re-dissolved with suitable volumes of solvent for the radio-immuno assay as described in example 3.
Friend mouse erythroleukemia cells can be induced to differentiate and become erythropoietic under the influence of a variety of reagents, especially dimethylsulfoxide. Such cells are also known to produce the enzyme 2'5'-oligo(A) synthetase. Before the method of the present invention, it was not possible to determine the 2'5'oligo(A) directly in these cells. The determination is described in this example. The Friend cells (clone FBU or N46AP) are grown in Dulbecco's modified Eagle's Medium containing 10% fetal calf serum, 2% (v/v) dimethylsulfoxide for FBU or 1.4% (v/v) DMSO for N46 AP and 1 mM glutamine. The cells are diluted with the same medium daily to maintain a density of 5.10^5 cells per ml. At various times, 30 ml cultures are collected and processed as described in the preceeding example. The lyophilized material is dissolved in the buffer corresponding to the reaction mixture for the assay, as in example 2, but containing 0.1 mg/ml of bovine serum albumin. The 2'5'-oligo(A) content is determined from the reduction of the binding of the [^32 P] labelled probe as in example 2 and 3.

[6] = test system: Friend mouse erythroleukemia cells (FBU); experiment: 2'5'-oligo(A) levels in differentiating Friend erythroleukemia cells, clone FBU; type: cell-based; conditions: 2% (v/v) DMSO
Experimental: as §2, with “The ATP and other nucleotides which might interfere with the assay may then be removed chromatographically with DEAE cellulose (Whatman DE-52) equilibrated with 125 mM NH4 HCO3 (pH 7.8). The loading ratio is the same as for the preparative columns of example 1, but microcolumns of 200 μl are optimal for this analytical scale. The column is washed with 15 ml of the same buffer to remove the ATP and other unbound material. The 2'5'-oligo(A) is eluted with 2 ml of 0.5M NH4 HCO3, and the samples are lyophilized after addition of 1/10th volume of ethanol. The samples may be stored indefinitely in anhydrous form and re-dissolved with suitable volumes of solvent for the radio-immuno assay as described in example 3.” left out
Friend mouse erythroleukemia cells can be induced to differentiate and become erythropoietic under the influence of a variety of reagents, especially dimethylsulfoxide. […] The 2'5'-oligo(A) content is determined from the reduction of the binding of the [^32 P] labelled probe as in example 2 and 3.

Compound: Nc1ncnc2c1ncn2[C@@H]1O[C@H](COP(=O)(O)OP(=O)(O)OP(=O)(O)O)[C@@H](O)[C@H]1O [ATP]
- amount giving 50% inhibition of the maximal binding of the [^32 P]-labelled probe [1]: > 3,000,000 fmoles
- Km (2'5'-oligo(A) synthetase [2]): ~1000 µM

Compound: 5'-(phospho)3 (adenylyl 2'-5')2 adenosine [pppA(2'p5'A)2]
- amount giving 50% inhibition of the maximal binding of the [^32 P]-labelled probe [1]: 2.5 fmol

Compound: Nc1ncnc2c1ncn2[C@@H]1O[C@H](COP(=O)(O)O)[C@@H](O)[C@H]1O [AMP]
- amount giving 50% inhibition of the maximal binding of the [^32 P]-labelled probe [1]: > 3,000,000 fmoles

Compound: Nc1ccn([C@@H]2O[C@H](COP(=O)(O)O)[C@@H](OP(=O)(O)O)[C@H]2O)c(=O)n1 [pCp]
- amount giving 50% inhibition of the maximal binding of the [^32 P]-labelled probe [1]: > 3,000,000 fmoles

Compound: pA(2'p5'A)3
- amount giving 50% inhibition of the maximal binding of the [^32 P]-labelled probe [1]: 25 fmol

Compound: O=c1ccn([C@@H]2O[C@H](COP(=O)(O)OP(=O)(O)OP(=O)(O)O)[C@@H](O)[C@H]2O)c(=O)[nH]1 [UTP]
- amount giving 50% inhibition of the maximal binding of the [^32 P]-labelled probe [1]: > 3,000,000 fmoles

Compound: CCCCC[C@H](O)/C=C/[C@@H]1[C@@H](C/C=C\CCCC(=O)O)[C@@H](O)C[C@H]1O [prostaglandin F2α]
- [^3 H]-ATP→[^3 H]-2'5'-oligo(A) (2'5'-oligo(A) synthetase [3]): 632 cpm/assay
- Radio-immune assay for 2'5'-oligo(A) (2'5'-oligo(A) synthetase [4]): 100 pmoles/assay

Compound: C[S+](C)[O-] [DMSO, dimethylsulfoxide]
- 2'5'-oligo(A) ([5]; day 1 post-DMSO (day 0: 7.5)): 7.8 fmoles/10^6 cells
- 2'5'-oligo(A) ([5]; day 2 post-DMSO): 4.3 fmoles/10^6 cells
- 2'5'-oligo(A) ([5]; day 3 post-DMSO): 17.5 fmoles/10^6 cells
- 2'5'-oligo(A) ([5]; day 5 post-DMSO): 63 fmoles/10^6 cells
- 2'5'-oligo(A) ([5]; day 6 post-DMSO): 53 fmoles/10^6 cells
- 2'5'-oligo(A) ([6]; day 1 post-DMSO (day 0: 2.6)): 28 fmoles/10^6 cells
- 2'5'-oligo(A) ([6]; day 2 post-DMSO): 28 fmoles/10^6 cells
- 2'5'-oligo(A) ([6]; day 4 post-DMSO): 20 fmoles/10^6 cells

Compound: Nc1ncnc2c1ncn2[C@@H]1O[C@H](COP(=O)(O)OP(=O)(O)O)[C@@H](O)[C@H]1O [ADP]
- amount giving 50% inhibition of the maximal binding of the [^32 P]-labelled probe [1]: > 3,000,000 fmoles

Compound: NC(=O)C1=CN([C@@H]2O[C@H](COP(=O)(O)OP(=O)(O)OC[C@H]3O[C@@H](n4cnc5c(N)ncnc54)[C@H](O)[C@@H]3O)[C@@H](O)[C@H]2O)C=CC1 [NADH]
- amount giving 50% inhibition of the maximal binding of the [^32 P]-labelled probe [1]: > 3,000,000 fmoles

Compound: Nc1ccn([C@@H]2O[C@H](COP(=O)(O)OP(=O)(O)OP(=O)(O)O)[C@@H](O)[C@H]2O)c(=O)n1 [CTP]
- amount giving 50% inhibition of the maximal binding of the [^32 P]-labelled probe [1]: > 3,000,000 fmoles

Compound: Nc1nc2c(ncn2[C@@H]2O[C@H](COP(=O)(O)OP(=O)(O)OP(=O)(O)O)[C@@H](O)[C@H]2O)c(=O)[nH]1 [GTP]
- amount giving 50% inhibition of the maximal binding of the [^32 P]-labelled probe [1]: > 3,000,000 fmoles
